Measurements taken from patent US8691805B2, “Azetidinyl diamides as monoacylglycerol lipase inhibitors” (Janssen Pharmaceutica NV, priority 2009, dated 2014).

What was measured:
mutant MGL = target: T1, mutant MGL (Homo sapiens, UniProt Q99685, L169S/L176S); assay: MGL ThermoFluor assay - mutant; conditions: read-out: MGL mutant ThermoFluor Kd, ThermoFluor thermal shift
T1 sequence (Q99685 1-303 L169S/L176S): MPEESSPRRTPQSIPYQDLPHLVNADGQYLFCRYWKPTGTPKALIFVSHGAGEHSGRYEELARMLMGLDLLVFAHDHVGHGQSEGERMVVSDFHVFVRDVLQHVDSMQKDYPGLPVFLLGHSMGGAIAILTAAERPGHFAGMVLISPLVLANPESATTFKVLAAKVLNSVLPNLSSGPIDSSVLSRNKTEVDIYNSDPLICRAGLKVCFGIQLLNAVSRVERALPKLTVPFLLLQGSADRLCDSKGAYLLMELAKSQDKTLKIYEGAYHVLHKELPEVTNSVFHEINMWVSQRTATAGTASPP
Protocol: The ThermoFluor (TF) assay is a 384-well plate-based binding assay that measures thermal stability of proteins^1,2. […] TF dye used in all experiments was 1,8-ANS (Invitrogen: A-47). Final TF assay conditions used for MGL studies were 0.07 mg/ml of mutant MGL, 100 μM ANS, 200 mM NaCl, 0.001% Tween-20 in 50 mM PIPES (pH=7.0).
Screening compound plates contained 100% DMSO compound solutions at a single concentration. […] Columns 12 and 24 were used as DMSO reference and contained no compound. […] Following compound dispension, protein and dye solutions were added to achieve the final assay volume of 3 μL.
Bar-coded assay plates were robotically loaded onto a thermostatically controlled PCR-type thermal block and then heated from 40 to 90° C. degrees at a ramp-rate of 1° C./min for all experiments. Fluorescence was measured by continuous illumination with UV light (Hamamatsu LC6), supplied via fiber optics and filtered through a band-pass filter (380-400 nm; >6 OD cutoff). Fluorescence emission of the entire 384-well plate was detected by measuring light intensity using a CCD camera (Sensys, Roper Scientific) filtered to detect 500±25 nm, resulting in simultaneous and independent readings of all 384 wells. […]

[1] = target: T2, MGL in rat brain homogenate (Rattus norvegicus, UniProt Q8R431); assay: 2-AG accumulation assay in rat brain homogenate; type: biochemical; conditions: 2-AG accumulation as percent of vehicle; for Rat Brain 2AG % VehCntrl (%) @10 μM: compound 10 μM
T2 construct: one g rat brain was homogenized; from tissue; host or cells: rat brain homogenate
T2 sequence (Q8R431 1-303): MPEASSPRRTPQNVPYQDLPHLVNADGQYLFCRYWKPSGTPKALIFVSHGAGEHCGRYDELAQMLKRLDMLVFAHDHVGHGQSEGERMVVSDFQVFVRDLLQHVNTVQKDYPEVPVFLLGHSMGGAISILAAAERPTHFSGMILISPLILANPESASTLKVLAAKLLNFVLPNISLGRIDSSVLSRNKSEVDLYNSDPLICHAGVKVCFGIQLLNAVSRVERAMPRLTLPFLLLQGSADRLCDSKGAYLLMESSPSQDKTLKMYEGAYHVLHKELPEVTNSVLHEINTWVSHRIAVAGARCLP

[2] = test system: CFA-induced paw radiant heat hypersensitivity in rats; assay: CFA-induced paw radiant heat hypersensitivity; type: in vivo; conditions: rat, 30 mg/kg p.o., HPβCD, group mean values, last time point 180 or 300 min
Protocol: Each rat was placed in a test chamber on a warm glass surface and allowed to acclimate for approximately 10 min. A radiant thermal stimulus (beam of light) was then focused through the glass onto the plantar surface of each hind paw in turn. The thermal stimulus was automatically shut off by a photoelectric relay when the paw was moved or when the cut-off time was reached (20 sec for radiant heat at ˜5 amps). An initial (baseline) response latency to the thermal stimulus was recorded for each animal prior to the injection of complete Freund's adjuvant (CFA). 24 h following intraplantar CFA injection, the response latency of the animal to the thermal stimulus was then re-evaluated and compared to the animal's baseline response time. […] Post-compound treatment withdrawal latencies were assessed at fixed time intervals, typically 30, 60, 120, 180, and 300 min.
The percent reversal (% R) of hypersensitivity was calculated in one of two different ways: 1) using group mean values or 2) using individual animal values. […]
Method 1. For all compounds, the % R of hypersensitivity was calculated using the mean value for groups of animals at each time point according to the following formula: % reversal=[(group treatment response−group CFA response)/(group baseline response−group CFA response)]×100 Results are given for the maximum % reversal observed for each compound at any time point tested. […]

[3] = test system: murine model of acute inflammation; conditions: Comelli et al. 2007; cited from earlier work

For `O=C(c1nccs1)N1CCN(C2CN(C(=O)[C@@H]3C[C@H]3c3ccccc3Cl)C2)CC1` (racemic) [Cpd 642], the Kd (mutant MGL) was 499 nM and the “Rat Brain 2AG % VehCntrl (%) @1 μM” value ([1]; compound 1 μM) was 170%.

With `O=C(c1ccc(-c2ccc(O)cc2)cc1)N1CC(N2CCN(C(=O)c3nccs3)CC2)C1` [Cpd 211, 4′-({3-[(1,3-Thiazol-2-ylcarbonyl)piperazin-1-yl]azetidin-1-yl}carbonyl)biphenyl-4-ol] the “Rat Brain 2AG % VehCntrl (%) @10 μM” value [1] was 725%.

With `COc1ccc(-c2ccc(C(=O)N3CC(N4CCN(C(=O)c5nccs5)CC4)C3)cc2)cc1C=O` [Cpd 216, 4-Methoxy-4′-({3-[(1,3-thiazol-2-ylcarbonyl)piperazin-1-yl]azetidin-1-yl}carbonyl)biphenyl-3-carbaldehyde] the “Rat Brain 2AG % VehCntrl (%) @10 μM” value [1] was 625%.

With `O=C(c1ccc(-c2cccc(C(F)(F)F)c2)c(Cl)c1)N1CC(N2CCN(C(=O)c3cscn3)CC2)C1` [Cpd 1102] the “Method 1: peak % reversal” value [2] was 38%.

For `O=C(c1ccc2c(ccn2-c2ccc(C(F)(F)F)cc2)c1)N1CC(N2CCN(C(=O)c3cscn3)CC2)C1` [Cpd 1359, 5-({3-[4-(1,3-Thiazol-4-ylcarbonyl)piperazin-1-yl]azetidin-1-yl}carbonyl)-1-[4-(trifruoromethyl)phenyl]-1 H-indole], the “Method 1: peak % reversal” value [2] was 5.1%.

In the case of `O=C(Nc1cccc(-c2ccccc2)c1)OC1CCCCC1` [URB602], the antinociceptive effect [3] is listed as “showed an antinociceptive effect”.
